Test results: US10940139B2, “Compounds that interact with the Ras superfamily for the treatment of cancers, inflammatory diseases, rasopathies, and fibrotic disease” (Shy Therapeutics LLC, priority 2017, dated 2021)

Experiments:
Rac-1 = Rac-1 (Homo sapiens (Human), UniProt P63000); assay: Rac inhibition assay (labeled GTP); format: binding; settings: read-out: Rac-1 % Inh.
KRas G12D mutant protein = KRas G12D mutant protein (Homo sapiens (Human), UniProt P01116, G12D); assay: Ras GTP binding domain inhibition assay (labeled GTP); settings: at 20 μM; read-out: KRas G12D % Inh.
Rho-A = Rho-A (Homo sapiens (Human), UniProt P61586); assay: Rho inhibition assay (labeled GTP); format: binding; settings: read-out: Rho-A % Inh.
[1] = biological target: KRas G12D/Q61H double mutant (Homo sapiens (Human), UniProt P01116, G12D/Q61H); assay: Ras GTP binding domain inhibition assay (labeled GTP); settings: at 20 μM; read-out: KRas G12D Q61H % Inh.
Method in brief: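 Labelled-GTP binding: plate-captured His-KRas protein was pre-exposed to compound for 3 h at room temperature (single 20 μM point or dilution series, 1% DMSO, Tris pH 7.5/MgCl2/DTT buffer). Cy3- or Cy5-GTP was then added for 45 min. Washed wells were read for retained fluorescence to give inhibition or IC50.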

KRas G12D/Q61H double mutant, sequence (P01116-2 other isoform, or with tags, fused parts or gaps G12D/Q61H): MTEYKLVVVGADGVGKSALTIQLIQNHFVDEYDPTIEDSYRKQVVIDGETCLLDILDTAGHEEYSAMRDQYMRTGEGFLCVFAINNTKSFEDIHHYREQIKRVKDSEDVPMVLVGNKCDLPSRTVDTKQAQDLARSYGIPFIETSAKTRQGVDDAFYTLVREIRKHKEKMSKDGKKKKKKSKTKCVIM
KRas G12D mutant protein, sequence (P01116-2 other isoform, or with tags, fused parts or gaps G12D): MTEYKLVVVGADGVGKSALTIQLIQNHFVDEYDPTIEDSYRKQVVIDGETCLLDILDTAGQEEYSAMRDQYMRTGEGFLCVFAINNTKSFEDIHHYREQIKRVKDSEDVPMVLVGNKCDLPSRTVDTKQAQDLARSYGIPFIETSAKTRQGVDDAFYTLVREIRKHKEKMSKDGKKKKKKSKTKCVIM
Rho-A, sequence (P61586 whole entry, the tested form may be a part): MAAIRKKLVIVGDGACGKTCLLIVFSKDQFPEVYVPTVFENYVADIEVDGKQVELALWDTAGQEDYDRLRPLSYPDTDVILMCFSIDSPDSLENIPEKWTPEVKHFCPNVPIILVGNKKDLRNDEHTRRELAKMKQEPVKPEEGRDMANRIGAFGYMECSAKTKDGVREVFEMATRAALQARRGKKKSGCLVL

Row | SMILES | inhibition at 20 µM (Rac-1) [%] | inhibition at 20 µM (KRas G12D mutant protein) [%] | inhibition at 20 µM (Rho-A) [%] | inhibition at 20 µM [1] [%]
1 | COc1ccc(COC[C@H]2OC(c3csc4c(=O)[nH]c(-c5ccccn5)nc34)[C@H](O)[C@@H]2O)cc1 (stereo partly shown) | 51 to 75 | 25 to 50 | 76 to 100 | 25 to 50
2 | Oc1nc(-c2ccccn2)nc2scc(Br)c12 [drawing 3623] | 76 to 100 | 51 to 75 | 76 to 100 | 51 to 75
3 | Oc1nc(-c2ccccn2)nc2sccc12 [drawing 3624] | 76 to 100 | 25 to 50 | 76 to 100 | 51 to 75
4 | Oc1nc(-c2ccccn2)nc2c(-c3ccccc3Cl)csc12 [drawing 3626] | 76 to 100 | 25 to 50 | 76 to 100 | 51 to 75
5 | COc1ccnc(-c2nc(O)c3ccsc3n2)c1 [drawing 3627] | 76 to 100 | 51 to 75 | 51 to 75 | 51 to 75
6 | CC1CN(c2ccccc2)CCN1C(=O)c1csc2c(O)nc(-c3ccccn3)nc12 (stereo not shown) [drawing 3650] | 76 to 100 | 76 to 100 | 76 to 100 | 51 to 75
7 | COc1cccc(CN2CCN(C(=O)c3csc4c(O)nc(-c5ccccn5)nc34)CC2)c1 [drawing 3652] | 76 to 100 | 76 to 100 | 76 to 100 | 25 to 50
8 | O=C(c1csc2c(O)nc(-c3ccccn3)nc12)N1CCOC(c2ccccc2Cl)C1 (stereo not shown) [drawing 3658] | 51 to 75 | 25 to 50 | 76 to 100 | 51 to 75
9 | COc1cccc(C2CN(C(=O)c3csc4c(O)nc(-c5ccccn5)nc34)CCN2)c1 (stereo not shown) [drawing 3662] | 76 to 100 | 51 to 75 | 76 to 100 | 25 to 50
10 | N#Cc1ccc(COCC(=O)Nc2nc(-c3ccccn3)nc3sccc23)cc1 [drawing 3688] | 76 to 100 | 76 to 100 | 76 to 100 | 25 to 50
11 | COc1ccnc(-c2nc(O)c3c(Cl)csc3n2)c1 [drawing 3689] | 76 to 100 | 51 to 75 | 76 to 100 | 51 to 75
12 | Cc1cnc(-c2ccccn2)nc1NC(=O)C1CCCc2cc(C#N)ccc21 (stereo not shown) [drawing 3699] | 76 to 100 | 25 to 50 | 76 to 100 | 51 to 75
13 | O=C(COCc1ccncc1)Nc1nc(-c2ccccn2)nc2sccc12 [drawing 3700] | 76 to 100 | 51 to 75 | 76 to 100 | 51 to 75
14 | O=C(COCc1cccnc1)Nc1nc(-c2ccccn2)nc2sccc12 [drawing 3701] | 76 to 100 | 51 to 75 | 76 to 100 | 51 to 75
15 | Nc1nc(-c2ccccn2)nc2ccsc12 [drawing 3706] | 76 to 100 | 1 to 25 | 76 to 100 | 25 to 50
16 | Cc1cc2nc(-c3ccccn3)nc(N)c2s1 [drawing 3708] | 76 to 100 | 51 to 75 | 76 to 100 | 51 to 75
17 | O=C(c1csc2c(O)nc(-c3ccccn3)nc12)N1CC2CC1CN2c1ccccc1 (stereo not shown) [drawing 3710] | 76 to 100 | 51 to 75 | 76 to 100 | 76 to 100
18 | O=C(c1csc2c(O)nc(-c3ccccn3)nc12)N1CCC(c2ccncc2)C1 (stereo not shown) [drawing 3711] | 51 to 75 | 51 to 75 | 76 to 100 | 51 to 75
19 | O=C(c1csc2c(O)nc(-c3ccccn3)nc12)N1CCC(c2cccc(O)c2)C1 (stereo not shown) [drawing 3712] | 76 to 100 | 76 to 100 | 76 to 100 | 76 to 100
20 | O=C(c1cc2nc(-c3ccccn3)nc(O)c2s1)N1CCN(c2ccccc2)CC1 [drawing 3713] | 76 to 100 | 51 to 75 | 76 to 100 | 51 to 75
21 | Oc1nc(-c2ccccn2)nc2c(-c3cc(Cl)cc(Cl)c3)csc12 [drawing 3720] | 25 to 50 | 25 to 50 | 51 to 75 | 25 to 50
22 | Oc1nc(-c2ccccn2)nc2c(-c3cccc4c3OCO4)csc12 [drawing 3721] | 51 to 75 | 25 to 50 | 51 to 75 | 51 to 75
23 | O=C(O)c1cc2nc(-c3ccccn3)nc(O)c2s1 [drawing 3722] | 76 to 100 | 51 to 75 | 76 to 100 | 51 to 75
24 | Oc1nc(-c2ccccn2)nc2sc3c(c12)CCNC3 [drawing 3723] | 76 to 100 | 76 to 100 | 76 to 100 | 51 to 75

Row | SMILES | inhibition at 20 µM (Rac-1) [%] | inhibition at 20 µM (KRas G12D mutant protein) [%] | inhibition at 20 µM (Rho-A) [%] | inhibition at 20 µM [1] [%]
25 | Oc1nc(-c2ccccn2)nc2sc3c(c12)CCCNC3 [drawing 3724] | 76 to 100 | 51 to 75 | 51 to 75 | 25 to 50
26 | Cc1cnc(-c2ccccn2)nc1NC(=O)Cc1ccc2cnccc2c1 [drawing 3728] | 76 to 100 | 51 to 75 | 76 to 100 | 51 to 75
27 | O=C(COCc1ccnc(O)c1)Nc1nc(-c2ccccn2)nc2sccc12 [drawing 3729] | 51 to 75 | 25 to 50 | 51 to 75 | 51 to 75
28 | Nc1nc(-c2ccccn2)nc2c(-c3ccccc3)csc12 [drawing 3731] | 51 to 75 | 25 to 50 | 51 to 75 | 25 to 50
29 | Oc1nc(-c2ccccn2)nc2c(-c3cc(F)ccc3OC(F)F)csc12 [drawing 3732] | 51 to 75 | 51 to 75 | 25 to 50 | 25 to 50
30 | Cn1nnc2ccc(-c3csc4c(O)nc(-c5ccccn5)nc34)cc21 [drawing 3733] | 76 to 100 | 51 to 75 | 51 to 75 | 51 to 75
31 | O=S1(=O)CCN(Cc2cccc(-c3csc4c(O)nc(-c5ccccn5)nc34)c2)CC1 [drawing 3736] | 76 to 100 | 51 to 75 | 76 to 100 | 51 to 75
32 | Oc1nc(-c2ccncn2)nc2c(-c3cccc(C(F)(F)F)c3)csc12 [drawing 3925] | 1 to 25 | 1 to 25 | 1 to 25 | –
33 | Oc1nc(-c2ncccn2)nc2c(-c3cccc(C(F)(F)F)c3)csc12 [drawing 3926] | 51 to 75 | 25 to 50 | 51 to 75 | –
34 | CC(C)Oc1ccc(-c2csc3c(O)nc(-c4nccn4C)nc23)cc1F [drawing 3927] | 51 to 75 | 25 to 50 | 25 to 50 | –
35 | Cc1sc2c(O)nc(-c3nccn3C)nc2c1-c1ccc(OC(C)C)c(F)c1 [drawing 3928] | 51 to 75 | 51 to 75 | 25 to 50 | –
36 | CC(C)Oc1ccc(-c2c(-c3ccccc3)sc3c(O)nc(-c4nccn4C)nc23)cc1F [drawing 3929] | 51 to 75 | 25 to 50 | 25 to 50 | –
37 | CC(C)COc1ccc(-c2csc3c(O)nc(-c4nccn4C)nc23)cn1 [drawing 3930] | 51 to 75 | 76 to 100 | 51 to 75 | –
38 | COc1ccc(-c2csc3c(O)nc(-c4nccn4C)nc23)cn1 [drawing 3931] | 51 to 75 | 51 to 75 | 51 to 75 | –
39 | Cn1ccnc1-c1nc(O)c2scc(-c3ccccc3)c2n1 [drawing 3932] | 51 to 75 | 51 to 75 | 25 to 50 | –
40 | Cn1ccnc1-c1nc(O)c2scc(-c3ccccc3Cl)c2n1 [drawing 3933] | 51 to 75 | 25 to 50 | 51 to 75 | –
41 | Cn1ccnc1-c1nc(O)c2scc(-c3ccc(F)cc3F)c2n1 [drawing 3934] | 51 to 75 | 25 to 50 | 25 to 50 | –
42 | Cn1ccnc1-c1nc(O)c2scc(-c3cccc(Cl)c3)c2n1 [drawing 3935] | 51 to 75 | 25 to 50 | 51 to 75 | –
43 | COC(C)(C)c1ccc(-c2csc3c(O)nc(-c4nccn4C)nc23)cc1 [drawing 3936] | 25 to 50 | 25 to 50 | 51 to 75 | –
44 | Cn1ccnc1-c1nc(O)c2scc(-c3ccc(C(C)(C)C)cc3)c2n1 [drawing 3937] | 25 to 50 | 1 to 25 | 25 to 50 | –
45 | COCCNc1nc(-c2ccccn2)nc2sc(-c3ccccc3)c(-c3ccccn3)c12 [drawing 3938] | 1 to 25 | 1 to 25 | 25 to 50 | –
46 | Cc1sc2c(O)nc(-c3nccn3C)nc2c1-c1ccc(F)cc1F [drawing 3939] | 1 to 25 | 1 to 25 | 1 to 25 | –
47 | COCCNc1nc(-c2nccn2C)nc2sc(-c3ccccc3)c(-c3ccccn3)c12 [drawing 3940] | 25 to 50 | 25 to 50 | 51 to 75 | –
